“And” between values parts separate entries of the source, which are not always exact repeats. Identical values can stand only once. Toxic doses and inconclusive results are not listed. No stated cut-off is given here; in the data, active means T/C of 150% or more; inactive means T/C below 125%.
Test system: L1210 leukemia ip in BDF1 mice, survival T/C
Experiment: NCI In Vivo Anticancer Drug Screen. Data for tumor model L1210 Leukemia (intraperitoneal) in B6D2F1 (BDF1) mice
Details: endpoint: mean survival time, higher = longer survival
Procedure, shortened: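 Transplantable tumor model; survival measured in treated vs vehicle control mice. Value = treated/control.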

[1] = dose: 10.0 mg/kg/injection, schedule: Q01DX001 (ip), vehicle: saline
[2] = dose: 25.0 mg/kg/injection, schedule: Q04DX003 (ip), vehicle: saline
[3] = dose: 50.0 mg/kg/injection, schedule: Q04DX003 (ip), vehicle: saline
[4] = dose: 100.0 mg/kg/injection, schedule: Q04DX003 (ip), vehicle: saline
[5] = dose: 100.0 mg/kg/injection, schedule: Q01DX001 (ip), vehicle: saline
[6] = dose: 200.0 mg/kg/injection, schedule: Q01DX001 (ip), vehicle: saline
[7] = dose: 400.0 mg/kg/injection, schedule: Q01DX001 (ip), vehicle: saline
[8] = dose: 200.0 mg/kg/injection, schedule: Q04DX003 (ip), vehicle: saline
[9] = dose: 400.0 mg/kg/injection, schedule: Q04DX003 (ip), vehicle: saline
[10] = dose: 100.0 mg/kg/injection, schedule: Q04DX002 (ip), vehicle: Klucel (hydroxypropylcellulose) (HPC)
[11] = dose: 200.0 mg/kg/injection, schedule: Q04DX002 (ip), vehicle: Klucel (hydroxypropylcellulose) (HPC)
[12] = dose: 400.0 mg/kg/injection, schedule: Q04DX002 (ip), vehicle: Klucel (hydroxypropylcellulose) (HPC)
[13] = dose: 100.0 mg/kg/injection, schedule: Q01DX001 (ip), vehicle: carboxymethylcellulose (CMC)
[14] = dose: 100.0 mg/kg/injection, schedule: Q04DX003 (ip), vehicle: saline with Tween-80
[15] = dose: 200.0 mg/kg/injection, schedule: Q04DX003 (ip), vehicle: saline with Tween-80
[16] = dose: 400.0 mg/kg/injection, schedule: Q04DX003 (ip), vehicle: saline with Tween-80

Measured: T/C

CNC1=C(N2CC2C)C(=O)C(NC)=C(N2CC2C)C1=O (stereo not given)
inactive: dose: 0.31 mg/kg/injection, schedule: Q01DX009 (ip), vehicle: saline 104 % of control and 108 % of control | dose: 0.62 mg/kg/injection, schedule: Q01DX009 (ip), vehicle: saline 104 % of control | dose: 1.25 mg/kg/injection, schedule: Q01DX009 (ip), vehicle: saline 114 % of control and 116 % of control | dose: 1.56 mg/kg/injection, schedule: Q04DX003 (ip), vehicle: saline 101 % of control | dose: 2.5 mg/kg/injection, schedule: Q01DX009 (ip), vehicle: saline 116 % of control | dose: 3.12 mg/kg/injection, schedule: Q04DX003 (ip), vehicle: saline 98 % of control and 111 % of control and 115 % of control | dose: 6.25 mg/kg/injection, schedule: Q04DX003 (ip), vehicle: saline 109 % of control and 123 % of control | [1] 96 % of control | dose: 10.0 mg/kg/injection, schedule: Q01DX009 (ip), vehicle: saline 94 % of control and 119 % of control | [2] 96 % of control and 118 % of control | [3] 98 % of control and 89 % of control
active: dose: 5.0 mg/kg/injection, schedule: Q01DX009 (ip), vehicle: saline 169 % of control | dose: 12.0 mg/kg/injection, schedule: Q04DX003 (ip), vehicle: saline 152 % of control | dose: 12.5 mg/kg/injection, schedule: Q04DX003 (ip), vehicle: saline 152 % of control and 193 % of control

O=C(COc1ccc(Cl)c(Cl)c1)NCc1ccc[n+](Cc2cccc(Cl)c2S(=O)(=O)F)c1
inactive: [2] 103 % of control | [3] 101 % of control | [4] 93 % of control and 100 % of control

Cc1[nH]c2ccc(C(C)(C)c3ccccc3)cc2c1C
inactive: [5] 98 % of control | [6] 91 % of control | [7] 88 % of control

CC(=O)N1CCc2c(O)cccc2C1
inactive: [4] 93 % of control | [8] 93 % of control | [9] 102 % of control

C=C1C=C(C)N(C(=O)c2ccccc2)CCN1C(=O)c1ccccc1
inactive: [4] 96 % of control | [8] 95 % of control | [9] 106 % of control

CC(=O)NC1(CO)CCCCC1
inactive: [4] 105 % of control | [8] 95 % of control | [9] 94 % of control

Cc1c(C)c(CO)c(C)c(C)c1CO
inactive: dose: 12.5 mg/kg/injection, schedule: Q04DX003 (ip), vehicle: Klucel (hydroxypropylcellulose) (HPC) 94 % of control | dose: 25.0 mg/kg/injection, schedule: Q04DX003 (ip), vehicle: Klucel (hydroxypropylcellulose) (HPC) 92 % of control | dose: 50.0 mg/kg/injection, schedule: Q04DX003 (ip), vehicle: Klucel (hydroxypropylcellulose) (HPC) 97 % of control

CCCCCCCCCCCCCCCC(=O)Nc1ccc(C)cc1C
inactive: [10] 96 % of control | [11] 93 % of control | [12] 90 % of control

Cl[Si](Cc1ccccc1)(Cc1ccccc1)Cc1ccccc1
inactive: [5] 93 % of control | [6] 88 % of control | [7] 95 % of control

COc1cc2c(cc1OC)C1(NCC2)C(=O)c2ccccc2C1=O
inactive: dose: 100.0 mg/kg/injection, schedule: Q01DX001 (ip), vehicle: Klucel (hydroxypropylcellulose) (HPC) 100 % of control | dose: 200.0 mg/kg/injection, schedule: Q01DX001 (ip), vehicle: Klucel (hydroxypropylcellulose) (HPC) 106 % of control | dose: 400.0 mg/kg/injection, schedule: Q01DX001 (ip), vehicle: Klucel (hydroxypropylcellulose) (HPC) 117 % of control

O=C(Nc1cccc(C(F)(F)F)c1)Nc1ccc(Cl)c(Cl)c1
inactive: dose: 50.0 mg/kg/injection, schedule: Q01DX001 (ip), vehicle: carboxymethylcellulose (CMC) 96 % of control | [13] 102 % of control | dose: 200.0 mg/kg/injection, schedule: Q01DX001 (ip), vehicle: carboxymethylcellulose (CMC) 98 % of control | dose: 400.0 mg/kg/injection, schedule: Q01DX001 (ip), vehicle: carboxymethylcellulose (CMC) 113 % of control

C=CC1=CC(=O)OC1=O
inactive: [1] 88 % of control

CC(C)CNNCC(C)C
inactive: dose: 75.0 mg/kg/injection, schedule: Q01DX001 (ip), vehicle: other 103 % of control

COc1cc2ccnc(C=O)c2cc1OC
inactive: dose: 50.0 mg/kg/injection, schedule: Q01DX001 (ip), vehicle: saline 96 % of control | [5] 95 % of control | [6] 101 % of control

CC1(C)N=C(SCC(=O)c2ccccc2)NC1(C)C
inactive: dose: 25.0 mg/kg/injection, schedule: Q04DX002 (ip), vehicle: saline 101 % of control | dose: 50.0 mg/kg/injection, schedule: Q04DX002 (ip), vehicle: saline 101 % of control | dose: 100.0 mg/kg/injection, schedule: Q04DX002 (ip), vehicle: saline 101 % of control

CC(C)CCOP(=S)(N1CC1)N1CC1
inactive: dose: 2.0 mg/kg/injection, schedule: Q01DX015 (ip), vehicle: carboxymethylcellulose (CMC) 101 % of control | dose: 4.0 mg/kg/injection, schedule: Q01DX015 (ip), vehicle: carboxymethylcellulose (CMC) 103 % of control | dose: 44.4 mg/kg/injection, schedule: Q01DX001 (ip), vehicle: carboxymethylcellulose (CMC) 117 % of control
active: [13] 164 % of control

Cc1ccc(-c2nc3cc(Cl)ccc3c(=O)o2)cc1
inactive: [14] 105 % of control | [15] 102 % of control | [16] 94 % of control

Nc1ncc(CBr)c(N)n1
inactive: [4] 97 % of control | [8] 96 % of control

CC(C)c1ccc(N=Nc2ccc(N(C)C)cc2)cc1
inactive: [14] 95 % of control | [15] 95 % of control | [16] 94 % of control

CC(=O)Oc1ccc(C2C3=C(COC3=O)CC3=C2C(=O)OC3)cc1
inactive: dose: 100.0 mg/kg/injection, schedule: Q01DX009 (ip), vehicle: saline with Tween-80 104 % of control | [14] 96 % of control | dose: 200.0 mg/kg/injection, schedule: Q01DX009 (ip), vehicle: saline with Tween-80 100 % of control | [15] 97 % of control | dose: 400.0 mg/kg/injection, schedule: Q01DX009 (ip), vehicle: saline with Tween-80 96 % of control | [16] 96 % of control

CN(C)c1ccc(C(N)=O)cn1
inactive: dose: 16.5 mg/kg/injection, schedule: Q01DX009 (ip), vehicle: saline with Tween-80 102 % of control | dose: 29.0 mg/kg/injection, schedule: Q04DX003 (ip), vehicle: saline 112 % of control | dose: 45.0 mg/kg/injection, schedule: Q04DX003 (ip), vehicle: saline 120 % of control | dose: 66.0 mg/kg/injection, schedule: Q04DX003 (ip), vehicle: saline 113 % of control | [4] 114 % of control | [8] 102 % of control

Cc1c(C(C)(C)C)cc(CC(C)C)c(O)c1-c1c(C)c(CC(C)C)cc(C(C)(C)C)c1O
inactive: [10] 98 % of control | [11] 91 % of control | [12] 94 % of control

COC(=O)c1csc(-c2csc(CCN)n2)n1
inactive: [5] 102 % of control | dose: 100.0 mg/kg/injection, schedule: Q01DX009 (ip), vehicle: saline 100 % of control | [4] 95 % of control | [6] 98 % of control | dose: 200.0 mg/kg/injection, schedule: Q01DX009 (ip), vehicle: saline 98 % of control | [8] 98 % of control | [7] 101 % of control | dose: 400.0 mg/kg/injection, schedule: Q01DX009 (ip), vehicle: saline 89 % of control | [9] 103 % of control

c1ccc2c(c1)ccc1cc3cnccc3cc12
inactive: [5] 95 % of control | [6] 103 % of control | [7] 101 % of control

Cc1cc(OC(=O)Nc2cccc(Cl)c2)ccc1[N+](=O)[O-]
inactive: dose: 100.0 mg/kg/injection, schedule: Q01DX009 (ip), vehicle: Klucel (hydroxypropylcellulose) (HPC) 101 % of control | dose: 100.0 mg/kg/injection, schedule: Q04DX003 (ip), vehicle: Klucel (hydroxypropylcellulose) (HPC) 90 % of control | dose: 200.0 mg/kg/injection, schedule: Q01DX009 (ip), vehicle: Klucel (hydroxypropylcellulose) (HPC) 101 % of control | dose: 200.0 mg/kg/injection, schedule: Q04DX003 (ip), vehicle: Klucel (hydroxypropylcellulose) (HPC) 95 % of control | dose: 400.0 mg/kg/injection, schedule: Q04DX003 (ip), vehicle: Klucel (hydroxypropylcellulose) (HPC) 90 % of control

COc1cc(C(=O)CCC(=O)O)c(OC)c(CBr)c1CBr
inactive: dose: 5.0 mg/kg/injection, schedule: Q01DX001 (ip), vehicle: other 101 % of control | dose: 10.0 mg/kg/injection, schedule: Q01DX001 (ip), vehicle: other 110 % of control | dose: 20.0 mg/kg/injection, schedule: Q01DX001 (ip), vehicle: other 101 % of control
